Here are results for twelve compounds from PubChem BioAssay (NCI).

Several values for one entry are separate records, joined by “and”; a condition that tells them apart may be missing. Identical values can stand only once.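 Assay format: 96-well plates, 48-hour exposure. Abbreviation: GI50, concentration required for 50% inhibition of growth. TGI: total growth inhibition.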

For orientation: GI50 means the concentration giving 50% growth inhibition. What is called TGI is the concentration at which net growth stops. The low end stands for greater sensitivity of the cells, the high end for lower sensitivity of the cells.

Test systems include HCT-116 colon; HOP-92 NSCLC; LOX IMVI melanoma; NCI-H226 lung; OVCAR-5 ovarian; PC-3 prostate; SF-295 CNS; SF-539 CNS; U251 CNS; UACC-257 melanoma.
What all share (test): DTP human tumour cell line panel, 48 h

Take `COc1ccc(-c2cc3c(C)nc(N)nc3n(C3CCC(OCCO)CC3)c2=O)cn1` (centres undefined): the GI50 is 0.243 µM and 0.222 µM in the assay on HCT-116 colon; 0.0362 µM in the assay on HOP-92 NSCLC; 0.111 µM and 0.0882 µM with LOX IMVI melanoma; 0.0742 µM and 0.105 µM in the assay on NCI-H226 lung; 0.0734 µM and 0.0489 µM with OVCAR-5 ovarian; 0.0687 µM and 0.0222 µM with PC-3 prostate. Besides, the GI50 in the assay with SF-295 CNS is 0.0501 µM and 0.0401 µM; in the assay with SF-539 CNS, 0.131 µM and 0.126 µM; with U251 CNS, 0.181 µM and 0.162 µM; with UACC-257 melanoma, 0.0586 µM and 0.0423 µM. The concentration for total growth inhibition (TGI) is > 10 µM and 18.9 µM with HCT-116 colon; 1.12 µM and 0.943 µM in the assay on LOX IMVI melanoma; > 2.19 µM and 0.946 µM in the assay with NCI-H226 lung; 1.95 µM and 1.02 µM in the assay on OVCAR-5 ovarian; > 2.73 µM and 0.299 µM with PC-3 prostate; 0.326 µM and 0.275 µM with SF-295 CNS. Further, the TGI is 0.552 µM and 0.461 µM in the assay on SF-539 CNS; 2.75 µM and 1.9 µM in the assay on U251 CNS; 0.414 µM and 0.336 µM with UACC-257 melanoma.

On to `CSc1nc2nc3c(nc2c(=O)n1C)C(=O)c1ccccc1C3=O`, for which the GI50 with HCT-116 colon was 0.149 µM; in the assay on HOP-92 NSCLC it was 0.476 µM; in the assay with LOX IMVI melanoma, 0.128 µM; in the assay with NCI-H226 lung, 0.193 µM; in the assay with OVCAR-5 ovarian, 0.199 µM; in the assay with PC-3 prostate, 0.269 µM. Further, the GI50 was 0.157 µM in the assay with SF-295 CNS, 0.196 µM with SF-539 CNS, 0.229 µM in the assay with U251 CNS and 0.131 µM in the assay with UACC-257 melanoma. Besides, the TGI with HCT-116 colon stood at 1.13 µM; in the assay on HOP-92 NSCLC it was 2.59 µM; in the assay on LOX IMVI melanoma it was 0.315 µM; in the assay on NCI-H226 lung it was 0.461 µM; in the assay on OVCAR-5 ovarian, 0.355 µM; in the assay with PC-3 prostate, 1.46 µM. Further, the TGI with SF-295 CNS came out at 0.315 µM; in the assay with SF-539 CNS it was 0.384 µM; in the assay with U251 CNS, 0.612 µM; with UACC-257 melanoma it was 0.265 µM.

As to `Nc1nc2c(C(=O)NCc3cccs3)nnn2c2cccc(Cl)c12`, the TGI in the assay on HCT-116 colon, with HOP-92 NSCLC, in the assay with LOX IMVI melanoma, in the assay on NCI-H226 lung, in the assay with OVCAR-5 ovarian and in the assay with PC-3 prostate was above 100 µM throughout. The TGI with SF-295 CNS, in the assay with SF-539 CNS, in the assay on U251 CNS and in the assay on UACC-257 melanoma was above 100 µM throughout.

As for `CC(=O)OC12C=C(C)C(C(C)C1)C1C(=O)N(CCN3CCCCC3)C(=O)C12` (centres undefined), the GI50 in the assay with HCT-116 colon, in the assay on HOP-92 NSCLC, with LOX IMVI melanoma, in the assay with NCI-H226 lung, in the assay with OVCAR-5 ovarian and with PC-3 prostate was above 50 µM each time. The GI50 in the assay with SF-295 CNS, in the assay on SF-539 CNS, in the assay on U251 CNS and in the assay with UACC-257 melanoma was above 50 µM each time. The TGI with HCT-116 colon, in the assay on HOP-92 NSCLC, in the assay with LOX IMVI melanoma, in the assay on NCI-H226 lung, with OVCAR-5 ovarian and with PC-3 prostate was above 50 µM in each case. The TGI with SF-295 CNS, in the assay on SF-539 CNS, with U251 CNS and in the assay on UACC-257 melanoma was above 50 µM throughout.

With `C#CC1=CC(=O)C(OC)=CC1=O`, the TGI with HCT-116 colon is 40 µM; with HOP-92 NSCLC it was 34 µM; in the assay with LOX IMVI melanoma, 40 µM; in the assay on NCI-H226 lung it was 42 µM; with OVCAR-5 ovarian it was above 100 µM; in the assay on PC-3 prostate, above 100 µM. Also, the TGI with SF-295 CNS, in the assay with SF-539 CNS, in the assay on U251 CNS and with UACC-257 melanoma was above 100 µM in each case.

For the compound `CS(=O)(=O)c1ccc(Nc2nc(N[C@H]3CCCC[C@H]3N)nc3cc[nH]c(=O)c23)cc1`, the GI50 is 0.615 µM in the assay on HCT-116 colon; 2.04 µM in the assay on HOP-92 NSCLC; 0.857 µM with LOX IMVI melanoma; 2.67 µM in the assay on NCI-H226 lung; 2.52 µM in the assay with OVCAR-5 ovarian; 2.46 µM in the assay with PC-3 prostate. Further, the GI50 is 1.91 µM in the assay with SF-295 CNS, 2.24 µM in the assay with SF-539 CNS, 0.664 µM in the assay on U251 CNS and 2.78 µM with UACC-257 melanoma. Besides, the total growth inhibition concentration (TGI) with HCT-116 colon is 16.8 µM; in the assay with HOP-92 NSCLC, 23.6 µM; in the assay with LOX IMVI melanoma, 6.7 µM; in the assay with NCI-H226 lung, 19 µM; with OVCAR-5 ovarian, above 100 µM; in the assay with PC-3 prostate, above 100 µM. The TGI worked out at 5.84 µM with SF-295 CNS, 7.09 µM in the assay on SF-539 CNS, 21.1 µM in the assay with U251 CNS and 15.9 µM in the assay with UACC-257 melanoma.

As to `COc1ccccc1S(=O)(=O)Nc1ccc2c3c(cc(CCC(=O)NCCCCNc4cccc5c4C(=O)N(C4CCC(=O)NC4=O)C5=O)cc13)C(=O)N2C` (centres undefined), the GI50 in the assay on HCT-116 colon was 3.06 µM; with HOP-92 NSCLC, 0.0318 µM; in the assay with LOX IMVI melanoma, 3.47 µM; with NCI-H226 lung, 0.456 µM; in the assay with OVCAR-5 ovarian, 2.77 µM; in the assay with PC-3 prostate, 0.204 µM. In addition, the GI50 in the assay on SF-295 CNS was 3.75 µM; in the assay on SF-539 CNS, 0.978 µM; with U251 CNS, above 63.4 µM; with UACC-257 melanoma, above 100 µM. Besides, the TGI in the assay on HCT-116 colon is above 100 µM; in the assay with HOP-92 NSCLC, 0.515 µM; with LOX IMVI melanoma, above 100 µM; in the assay on NCI-H226 lung, 4.79 µM; with OVCAR-5 ovarian, above 100 µM; with PC-3 prostate, above 100 µM. Moreover, the TGI in the assay on SF-295 CNS, with SF-539 CNS, in the assay on U251 CNS and in the assay with UACC-257 melanoma was above 100 µM in each case.

For the compound `CCCOC(=O)c1c(C)n(C)c2scc[n+]12`, the GI50 in the assay on HCT-116 colon is 35.8 µM; with HOP-92 NSCLC, 15.1 µM; in the assay on LOX IMVI melanoma, 89.7 µM; in the assay on NCI-H226 lung it was 62.3 µM; in the assay with OVCAR-5 ovarian, above 100 µM; with PC-3 prostate, 54.1 µM. The GI50 in the assay on SF-295 CNS is 41.7 µM; in the assay on SF-539 CNS it was 91.2 µM; in the assay with U251 CNS, 34 µM; in the assay with UACC-257 melanoma, 40.8 µM. The total growth inhibition concentration (TGI) with HCT-116 colon, in the assay on HOP-92 NSCLC, in the assay with LOX IMVI melanoma, in the assay on NCI-H226 lung, in the assay with OVCAR-5 ovarian and with PC-3 prostate was above 100 µM throughout. For the same compound, the TGI in the assay on SF-295 CNS, in the assay with SF-539 CNS, in the assay on U251 CNS and with UACC-257 melanoma was above 100 µM each time.

In the case of `COC(=O)c1c(-c2cccs2)oc(-c2cccs2)c1C(=O)OC`, the GI50 in the assay on HCT-116 colon was 30.3 µM; with HOP-92 NSCLC it was 31.9 µM; in the assay with LOX IMVI melanoma, 31.9 µM; in the assay with NCI-H226 lung, 38.2 µM; in the assay on OVCAR-5 ovarian it was above 95 µM; with PC-3 prostate, 26.3 µM. Also, the GI50 in the assay with SF-295 CNS is 19.4 µM; in the assay with SF-539 CNS, 84.4 µM; in the assay on U251 CNS, 59.6 µM; with UACC-257 melanoma, 40.3 µM. For the same compound, the TGI with HCT-116 colon is above 100 µM; with HOP-92 NSCLC, above 100 µM; with LOX IMVI melanoma, above 63.1 µM; with NCI-H226 lung it was 98.3 µM; with OVCAR-5 ovarian, above 100 µM; in the assay with PC-3 prostate, above 100 µM. The TGI with SF-295 CNS was 51.8 µM; with SF-539 CNS, above 100 µM; in the assay with U251 CNS, above 100 µM; in the assay on UACC-257 melanoma, above 95.3 µM.

With `CCCc1cc(=O)n2c(C(=O)Nc3ccc(F)cc3)c(C(=O)Nc3ccc(F)cc3)sc2n1`, the GI50 is 18.3 µM with HCT-116 colon; 5.27 µM with HOP-92 NSCLC; 45.5 µM in the assay with LOX IMVI melanoma; 1.71 µM in the assay on NCI-H226 lung; above 160 µM in the assay on OVCAR-5 ovarian; 30.1 µM in the assay on PC-3 prostate. Moreover, the GI50 was above 160 µM in the assay with SF-295 CNS, above 160 µM in the assay on SF-539 CNS, 16.3 µM in the assay on U251 CNS and 20.8 µM with UACC-257 melanoma. Moreover, the TGI with HCT-116 colon is above 160 µM; in the assay on HOP-92 NSCLC, 18.6 µM; in the assay on LOX IMVI melanoma it was above 160 µM; in the assay with NCI-H226 lung, 16.3 µM; in the assay with OVCAR-5 ovarian it was above 160 µM; with PC-3 prostate it was above 160 µM. Moreover, the concentration for total growth inhibition (TGI) with SF-295 CNS was above 160 µM; in the assay with SF-539 CNS, above 160 µM; in the assay on U251 CNS, 47.9 µM; in the assay on UACC-257 melanoma, 62.8 µM.

For `CCCCCCSSC(=S)N(CC)CC`, the GI50 in the assay with HCT-116 colon is 14.4 µM; in the assay with HOP-92 NSCLC it was 32.4 µM; in the assay on LOX IMVI melanoma it was 15.3 µM; in the assay on NCI-H226 lung it was 35.4 µM; in the assay with OVCAR-5 ovarian, 20.5 µM; in the assay with PC-3 prostate, 20.5 µM. Also, the GI50 in the assay with SF-295 CNS is 17.4 µM; in the assay on SF-539 CNS, 17.5 µM; with U251 CNS, 14.2 µM; in the assay with UACC-257 melanoma it was 48.3 µM. Besides, the TGI was 28.5 µM with HCT-116 colon; above 100 µM with HOP-92 NSCLC; 33.1 µM in the assay on LOX IMVI melanoma; above 100 µM in the assay with NCI-H226 lung; 35.9 µM in the assay with OVCAR-5 ovarian; 57.6 µM in the assay on PC-3 prostate. Moreover, the TGI with SF-295 CNS was 51.1 µM; in the assay with SF-539 CNS it was 43.3 µM; with U251 CNS, 30.6 µM; in the assay on UACC-257 melanoma, above 100 µM.

Consider `[N-]=[N+]=NCCCn1c2c(c3ccc([N+](=O)[O-])cc3c1=O)C(=O)c1cc(Br)ccc1-2`, for which the GI50 was 3.01 µM in the assay on HCT-116 colon; 37.7 µM with HOP-92 NSCLC; above 100 µM in the assay on LOX IMVI melanoma; above 100 µM in the assay with NCI-H226 lung; above 100 µM in the assay with OVCAR-5 ovarian; above 100 µM in the assay with PC-3 prostate. The GI50 with SF-295 CNS is 1.66 µM; in the assay on SF-539 CNS it was above 100 µM; in the assay on U251 CNS, 45.8 µM; in the assay with UACC-257 melanoma, above 100 µM. Moreover, the TGI in the assay on HCT-116 colon, with HOP-92 NSCLC, with LOX IMVI melanoma, in the assay on NCI-H226 lung, with OVCAR-5 ovarian and in the assay on PC-3 prostate was above 100 µM in each case. Further, the TGI in the assay on SF-295 CNS, in the assay on SF-539 CNS, in the assay with U251 CNS and with UACC-257 melanoma was above 100 µM in each case.
